In PubChem BioAssay (NCI):
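Test compounds were applied to cells in 96-well plates for 48 hours at 5 doses. At the TGI there is no net growth.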

How the values were obtained:
Assay in all cases: NCI tumour cell line growth inhibition, 48 h
[1] = system: 786-0 renal
[2] = system: A498 renal
[3] = system: A549 NSCLC
[4] = system: ACHN renal
[5] = system: BT-549 breast
[6] = system: CAKI-1 renal
[7] = system: CCRF-CEM leukemia
[8] = system: COLO 205 colon
[9] = system: DLD-1 colon
[10] = system: DMS 114 small cell lung
[11] = system: DMS 273 small cell lung
[12] = system: DU-145 prostate
[13] = system: EKVX NSCLC
[14] = system: HCC-2998 colon
[15] = system: HCT-116 colon
[16] = system: HCT-15 colon
[17] = system: HL-60(TB) leukemia
[18] = system: HOP-18 NSCLC
[19] = system: HOP-62 NSCLC
[20] = system: HOP-92 NSCLC
[21] = system: HS 578T breast
[22] = system: HT29 colon
[23] = system: IGROV1 ovarian
[24] = system: K-562 leukemia
[25] = system: KM12 colon
[26] = system: KM20L2 colon
[27] = system: LOX IMVI melanoma
[28] = system: M14 melanoma
[29] = system: M19-MEL melanoma
[30] = system: MALME-3M melanoma
[31] = system: MCF7 breast
[32] = system: MDA-MB-231 breast
[33] = system: MDA-MB-435
[34] = system: MDA-N
[35] = system: MOLT-4 leukemia
[36] = system: NCI-H226 lung
[37] = system: NCI-H23 lung
[38] = system: NCI-H460 lung
[39] = system: NCI-H522 lung
[40] = system: NCI/ADR-RES ovarian
[41] = system: OVCAR-3 ovarian
[42] = system: OVCAR-4 ovarian
[43] = system: OVCAR-5 ovarian
[44] = system: OVCAR-8 ovarian
[45] = system: P388 leukemia
[46] = system: P388/ADR leukemia
[47] = system: PC-3 prostate
[48] = system: RPMI-8226 leukemia
[49] = system: RXF 393 renal
[50] = system: SF-268 CNS
[51] = system: SF-295 CNS
[52] = system: SF-539 CNS
[53] = system: SK-MEL-2 melanoma
[54] = system: SK-MEL-28 melanoma
[55] = system: SK-MEL-5 melanoma
[56] = system: SK-OV-3 ovarian
[57] = system: SN12C renal
[58] = system: SN12K1 renal
[59] = system: SNB-19 CNS
[60] = system: SNB-75 CNS
[61] = system: SNB-78 CNS
[62] = system: SW-620 colon
[63] = system: T-47D breast
[64] = system: TK-10 renal
[65] = system: U251 CNS
[66] = system: UACC-257 melanoma
[67] = system: UACC-62 melanoma
[68] = system: UO-31 renal
[69] = system: XF 498 CNS

**Q.** Which TGI [1] does the source give for `CCCCCCCCOC(=O)c1cc([N+](=O)[O-])c(Sc2ncnc3nc[nH]c23)c([N+](=O)[O-])c1` here?
**A.** > 37.2 µM

**Q.** And the TGI [2]?
**A.** 44.9 µM

**Q.** And the TGI [3]?
**A.** 27.3 µM

**Q.** What about the TGI [4] of the same molecule?
**A.** 10.2 µM

**Q.** What about the TGI [5] of the same molecule?
**A.** 25.7 µM

**Q.** What about the TGI [6] of the same molecule?
**A.** 17.7 µM

**Q.** And the TGI [7]?
**A.** 2.68 µM

**Q.** What about the TGI [8] of the same molecule?
**A.** 3.68 µM

**Q.** What about the TGI [9] of the same molecule?
**A.** 2.94 µM

**Q.** And the TGI [10]?
**A.** 1.81 µM

**Q.** And the TGI [11]?
**A.** 1.57 µM

**Q.** What about the TGI [12] of the same molecule?
**A.** 18.6 µM

**Q.** What about the TGI [13] of the same molecule?
**A.** 26.8 µM

**Q.** What about the TGI [14] of the same molecule?
**A.** 16.2 µM

**Q.** And the TGI [15]?
**A.** 5.35 µM

**Q.** And the TGI [16]?
**A.** 20.6 µM

**Q.** What about the TGI [17] of the same molecule?
**A.** 9.82 µM

**Q.** What about the TGI [18] of the same molecule?
**A.** 11.1 µM

**Q.** And the TGI [19]?
**A.** 21.8 µM

**Q.** What about the TGI [20] of the same molecule?
**A.** 6.32 µM

**Q.** And the TGI [21]?
**A.** 70.9 µM

**Q.** What about the TGI [22] of the same molecule?
**A.** 4.87 µM

**Q.** What about the TGI [23] of the same molecule?
**A.** 16 µM

**Q.** And the TGI [24]?
**A.** 7.8 µM

**Q.** What about the TGI [25] of the same molecule?
**A.** 18 µM

**Q.** And the TGI [26]?
**A.** 9.22 µM

**Q.** And the TGI [27]?
**A.** 1.24 µM

**Q.** And the TGI [28]?
**A.** 26.9 µM

**Q.** And the TGI [29]?
**A.** 12.9 µM

**Q.** What about the TGI [30] of the same molecule?
**A.** 19.9 µM

**Q.** What about the TGI [31] of the same molecule?
**A.** 12.1 µM

**Q.** What about the TGI [32] of the same molecule?
**A.** > 31.6 µM

**Q.** And the TGI [33]?
**A.** > 38.4 µM

**Q.** What about the TGI [34] of the same molecule?
**A.** 22.5 µM

**Q.** And the TGI [35]?
**A.** 16.2 µM

**Q.** And the TGI [36]?
**A.** 13.5 µM

**Q.** And the TGI [37]?
**A.** 11.7 µM

**Q.** What about the TGI [38] of the same molecule?
**A.** 17.4 µM

**Q.** And the TGI [39]?
**A.** 2.41 µM

**Q.** What about the TGI [40] of the same molecule?
**A.** 25.7 µM

**Q.** What about the TGI [41] of the same molecule?
**A.** 4.01 µM

**Q.** And the TGI [42]?
**A.** 13.5 µM

**Q.** What about the TGI [43] of the same molecule?
**A.** 13.8 µM

**Q.** And the TGI [44]?
**A.** 10.1 µM

**Q.** What about the TGI [45] of the same molecule?
**A.** 0.447 µM

**Q.** What about the TGI [46] of the same molecule?
**A.** 0.458 µM

**Q.** And the TGI [47]?
**A.** 13.8 µM

**Q.** And the TGI [48]?
**A.** 8.54 µM

**Q.** And the TGI [49]?
**A.** > 47.6 µM

**Q.** And the TGI [50]?
**A.** 8.47 µM

**Q.** What about the TGI [51] of the same molecule?
**A.** 11.2 µM

**Q.** And the TGI [52]?
**A.** 5.8 µM

**Q.** What about the TGI [53] of the same molecule?
**A.** 17.7 µM

**Q.** What about the TGI [54] of the same molecule?
**A.** 42.8 µM

**Q.** And the TGI [55]?
**A.** 18.4 µM

**Q.** And the TGI [56]?
**A.** 25.3 µM

**Q.** And the TGI [57]?
**A.** 7.34 µM

**Q.** What about the TGI [58] of the same molecule?
**A.** 2.64 µM

**Q.** And the TGI [59]?
**A.** 32.9 µM

**Q.** And the TGI [60]?
**A.** 9.27 µM

**Q.** And the TGI [61]?
**A.** 10.5 µM

**Q.** And the TGI [62]?
**A.** 8.31 µM

**Q.** What about the TGI [63] of the same molecule?
**A.** 3.31 µM

**Q.** What about the TGI [64] of the same molecule?
**A.** 8.58 µM

**Q.** And the TGI [65]?
**A.** 17.3 µM

**Q.** What about the TGI [66] of the same molecule?
**A.** 28 µM

**Q.** What about the TGI [67] of the same molecule?
**A.** 17 µM

**Q.** And the TGI [68]?
**A.** 19.9 µM

**Q.** And the TGI [69]?
**A.** 2.24 µM
